Results published in patent publication US12583856B2, “Inhibitors of protein kinase A” (Blueprint Medicines Corporation, priority 2021, dated 2026).

Assays:
[1] = system: PKA (phosphorylation of VASP on Serine 157); assay: Cellular potency assay: P-VASP(157) HTRF in Forskolin-stimulated Huh7 cells; type: cell-based; conditions: Homo sapiens, Huh-7, 4 hours compound, 5 μM Forskolin 30 minutes, read-out: Phos VASP(S157) IC50
Text: PKA directly phosphorylate VASP on Serine 157. Phosphorylation of VASP on Serine 157. P-VASP(157) was therefore used as a readout of PKA cellular activity. P-VASP(157) was detected with a HTRF assay, which is based on a TR-FRET sandwich immunoassay-based format comprising two specific anti-VASP antibodies following the manufactors protocol (Cisbio, Catalog No. 63ADK066PEH). PKA was activated in the assay by the addition of Forskolin (Sigma-Aldrich, Catalog No. F3917).
Dose response in Forskolin-stimulated human Huh7 cells was measured as follows. Briefly, Huh7 cells were plated at a density of 2×10^4 cells per well in a 384-well opti-well cell culture plate in 15 μl of serum- and phenol-free Dulbecco's Modified Eagle Medium (DMEM, Gibco Catalog No. 21063-029), and incubated for over night at 37° C., 5% CO2. The next day, 3 μl of a dosed concentration series of test compound (0.24%) DMSO final concentration) was added to the wells, and the cells were incubated for an additional 4 hours at 37° C., 5% CO2. 2 μl of Forskolin was added at a final concentration of 5 μM and the plates were incubated for 30 minutes at 37° C., 5% CO2. 5 μl of lysis buffer containing 1% HALT protease cocktail inhibitors (ThermoFisher, Catalog No. 78430), was added to the cells and the mixture was incubated under gentle shaking for 30 min at room temperature. 10 μl of this lysate was transferred to a 384-well proxi plate and 2.5 μL of the premixed antibody solution was added. An antibody solution was prepared by combining phopho-VASP cryptate antibody and phospho-VASP d2 antibody, at twenty-fold dilution into a buffer solution following the manufactors' protocol. The lysate and antibody mixture was incubated for either 3 h at room temperature or overnight at 4° C. The fluorescence emission at two different wavelengths (665 nm and 620 nm) was read on an EnVision instrument.

PRKACA = molecular target: T1, PRKACA (Homo sapiens, UniProt P17612); assay: PRKACA assay at Km (EZ Reader 2 electrophoretic mobility shift); type: biochemical; conditions: 5 μM ATP (Km), 1 μM Kemptide, 90 minutes at 25 C; read-out: Enz PRKACA IC50
T1 construct: purchased Millipore 539482
Description: (§1) A Perkin Elmer electrophoretic mobility shift platform (the EZ Reader 2) was used to assess the activity of test compounds against a kinase of interest. Fluorescently labeled substrate peptide was incubated in the presence of kinase, ATP, and the test compound, so that a portion of the peptide was phosphorylated by the enzyme. At the end of the reaction, the mix of phosphorylated (product) and non-phosphorylated (substrate) peptide containing solutions was passed through the microfluidic system of the Perkin Elmer EZ Reader 2 under an applied potential difference. The presence of the phosphate group on the product peptide provided a difference in mass and charge between those of the substrate peptide, resulting in a separation of the substrate and product pools in the sample. As the stopped solutions passed under the instrument's LED light the phosphorylated and un-phosphorylated fluorophore bound peptides were detected and resolved as separate peaks. The ratio between these peaks therefore reflected the test compound's impact on the kinase at that concentration in that well under those conditions.
PRKACA assay at Km: In each well of a 384-well plate, 0.007 ng/ul (0.18 nM) of PRKACA enzyme (Millipore: 539482) was incubated in a total of 12.5 μl of buffer (100 mM HEPES pH 7.5, 0.015% Brij 35, 10 mM MgCl2, 1 mM DTT) with 1 μM Kemptide peptide substrate (5-FAM-LRRASLG) (Anaspec 29933) and 5 μM ATP at 25 C for 90 minutes in the presence or absence of a dosed concentration series of test compounds (1% DMSO final concentration). The reaction was stopped by the addition of 80 μl of Stop buffer (100 mM HEPES pH 7.5, 0.015% Brij 35, 35 mM EDTA and 0.2% of Coating Reagent 3 (Perkin Elmer)). The plate was then read on the EZ Reader 2 (protocol settings: −2.0 psi, upstream voltage −700, downstream voltage −2700, post sample sip 60 seconds). Data was normalized to 0% and 100% inhibition controls and the IC50 calculated using a 4-parameter fit using GraphPad Prism.

PRKACA-DNAJB1 = molecular target: T2, PRKACA-DNAJB1 (Homo sapiens, UniProt P17612); assay: PRKACA-DNAJB1 enzyme assay (EZ Reader 2 electrophoretic mobility shift); type: biochemical; conditions: read-out: Enz PRKACA-DNAJB1 IC50
T2 construct: DNAJB1 (fusion partner, P25685); the other entry of the earlier key: DNAJB1 (P25685, DnaJ homolog subfamily B member 1)
Description: as §1

[2] = system: FL-HCC (LI5132) PDX tumors; assay: Efficacy study in FL-HCC (LI5132) patient-derived xenograft (PDX) model; type: in vivo; conditions: oral delivery; compound 144: 30 mg/kg PO QDX34; FIG. 3
Description: Efficacy: To establish the PDX model, 72 mice were inoculated with patient tumor cells to yield at least 36 mice with tumors of the required size. 18 of these mice were selected for the study.

| SMILES | IC50 [1] [nM] | IC50 (PRKACA) [nM] | IC50 (PRKACA-DNAJB1) [nM] | FLC tumor growth inhibition [2] | tolerability of the dose [2] |
| --- | --- | --- | --- | --- | --- |
| O=C(N[C@@H]1c2c(Cl)cccc2OC[C@@H]1O)c1ccc(-c2ccnc3[nH]ccc23)nc1 [Compound 139] | 0.01 to 100 | ≤ 1 | 1.01 to 5 | – | – |
| O=C(N[C@@H]1c2c(F)cccc2OC[C@@H]1O)c1ccc(-c2ccnc3[nH]cc(F)c23)nc1 [Compound 141] | 0.01 to 100 | ≤ 1 | ≤ 1 | – | – |
| O=C(N[C@@H]1c2ccccc2C[C@H]1N1CCCC1)c1ccc(-c2ccnc3[nH]ccc23)cc1 [Compound 142] | < 50 | ≤ 1 | ≤ 1 | – | – |
| O=C(N[C@@H]1c2ccccc2C[C@H]1N1CCCC1)c1ccc(-c2ccnc3[nH]ccc23)nc1 [Compound 144, N-[(1R,2R)-2-(Pyrrolidin-1-yl)-2,3-dihydro-1H-inden-1-yl]-6-{1H-pyrrolo[2,3-b]pyridin-4-yl}pyridine-3-carboxamide] | < 50 | ≤ 1 | – | significant FLC tumor growth inhibition | tolerated |
| O=C(N[C@@H]1c2c(ccc(F)c2F)C[C@@H]1O)c1ccc(-c2ccnc3[nH]cc(F)c23)nc1 [Compound 146] | 0.01 to 100 | ≤ 1 | ≤ 1 | – | – |
| Cc1c[nH]c2nccc(-c3ccc(C(=O)N[C@H]4C[C@@H](C)Oc5ccc(F)c(F)c54)cn3)c12 [Compound 148, N-[(2R,4S)-5,6-Difluoro-2-methyl-3,4-dihydro-2H-1-benzopyran-4-yl]-6-{3-methyl-1H-pyrrolo[2,3-b]pyridin-4-yl}pyridine-3-carboxamide] | 0.01 to 100 | ≤ 1 | ≤ 1 | – | – |
| C[C@@H]1Oc2ccc(F)c(F)c2[C@@H](NC(=O)c2ccc(-c3ccnc4[nH]ccc34)nc2)[C@@H]1O [Compound 150] | < 50 | ≤ 1 | ≤ 1 | – | – |
| C[C@H]1Oc2ccc(F)c(F)c2[C@@H](NC(=O)c2ccc(-c3ccnc4[nH]ccc34)nc2)[C@H]1O [Compound 151] | < 50 | ≤ 1 | ≤ 1 | – | – |
| Cc1c[nH]c2nccc(-c3ccc(C(=O)N[C@@H]4c5ccccc5C[C@H]4N4CCCC4)cn3)c12 [Compound 152] | 0.01 to 100 | 1.01 to 5 | 1.01 to 5 | – | – |
| O=C(N[C@@H]1c2c(F)cc(C(F)F)cc2C[C@@H]1O)c1ccc(-c2ccnc3[nH]ccc23)nc1 [Compound 154] | < 50 | ≤ 1 | ≤ 1 | – | – |
| O=C(N[C@@H]1c2c(F)cccc2C[C@H]1N1CCCC1)c1ccc(-c2ccnc3[nH]ccc23)nc1 [Compound 157, N-[(1R,2R)-7-Fluoro-2-(pyrrolidin-1-yl)-2,3-dihydro-1H-inden-1-yl]-6-{1H-pyrrolo[2,3-b]pyridin-4-yl}pyridine-3-carboxamide] | < 50 | ≤ 1 | ≤ 1 | – | – |
| O=C(N[C@@H]1c2ccccc2C[C@H]1N1CCCC1)c1ccc(-c2ccnc3[nH]cc(F)c23)nc1 [Compound 159] | 0.01 to 100 | ≤ 1 | 1.01 to 5 | – | – |
| Cc1c[nH]c2nccc(-c3ccc(C(=O)N[C@@H]4c5c(ccc(F)c5F)O[C@@H](C)[C@H]4O)cn3)c12 [Compound 160] | < 50 | ≤ 1 | ≤ 1 | – | – |
| Cc1c[nH]c2nccc(-c3ccc(C(=O)N[C@@H]4c5c(ccc(F)c5F)O[C@H](C)[C@@H]4O)cn3)c12 [Compound 161] | 0.01 to 100 | ≤ 1 | ≤ 1 | – | – |
| Cc1c[nH]c2nccc(-c3ccc(C(=O)N[C@@H]4c5c(F)cc(C(F)F)cc5C[C@@H]4O)cn3)c12 [Compound 162, N-[(1R,2S)-5-(Difluoromethyl)-7-fluoro-2-hydroxy-2,3-dihydro-1H-inden-1-yl]-6-{3-methyl-1H-pyrrolo[2,3-b]pyridin-4-yl}pyridine-3-carboxamide] | < 50 | ≤ 1 | ≤ 1 | significant FLC tumor growth inhibition | tolerated |
| Cc1c[nH]c2nccc(-c3ccc(C(=O)N[C@@H]4c5c(F)cccc5C[C@H]4N4CCCC4)cn3)c12 [Compound 165] | < 50 | ≤ 1 | ≤ 1 | – | – |
| O=C(N[C@@H]1c2c(F)cccc2C[C@H]1N1CC[C@@H](O)C1)c1ccc(-c2ccnc3[nH]ccc23)nc1 [Compound 167] | 0.01 to 100 | ≤ 1 | ≤ 1 | – | – |
| O=C(N[C@@H]1c2c(F)cccc2C[C@H]1N1CCCC1)c1ccc(-c2ccnc3[nH]cc(F)c23)nc1 [Compound 169] | < 50 | ≤ 1 | ≤ 1 | – | – |
| O=C(N[C@@H]1c2c(F)cccc2C[C@H]1N1CC[C@H](F)C1)c1ccc(-c2ccnc3[nH]ccc23)nc1 [Compound 170] | < 50 | ≤ 1 | ≤ 1 | – | – |
| CO[C@@H]1CCN([C@@H]2Cc3cccc(F)c3[C@H]2NC(=O)c2ccc(-c3ccnc4[nH]ccc34)nc2)C1 [Compound 173] | 0.01 to 100 | ≤ 1 | ≤ 1 | – | – |
| Cc1c[nH]c2nccc(-c3ccc(C(=O)N[C@@H]4c5c(ccc(F)c5F)C[C@H]4N4CCCC4)cn3)c12 [Compound 175] | < 50 | ≤ 1 | ≤ 1 | – | – |
| O=C(N[C@@H]1c2c(Cl)cccc2C[C@H]1N1CC[C@@H](O)C1)c1ccc(-c2ccnc3[nH]ccc23)cn1 [Compound 176] | < 50 | ≤ 1 | ≤ 1 | – | – |
| C[C@]1(O)CCN([C@@H]2Cc3cccc(Cl)c3[C@H]2NC(=O)c2ccc(-c3ccnc4[nH]ccc34)nc2)C1 [Compound 180] | < 50 | ≤ 1 | ≤ 1 | – | – |
| O=C(N[C@@H]1c2c(Cl)cccc2C[C@H]1N1C[C@H](O)[C@@H](F)C1)c1ccc(-c2ccnc3[nH]ccc23)nc1 [Compound 185] | < 50 | ≤ 1 | ≤ 1 | – | – |
| O=C(N[C@@H]1c2c(Cl)cccc2C[C@H]1N1C[C@@H](F)[C@@H](O)C1)c1ccc(-c2ccnc3[nH]ccc23)nc1 [Compound 186] | < 50 | ≤ 1 | 1.01 to 5 | – | – |
| CO[C@@H]1CCN([C@@H]2Cc3cccc(Cl)c3[C@H]2NC(=O)c2ccc(-c3ccnc4[nH]cc(C)c34)nc2)C1 [Compound 188] | 0.01 to 100 | ≤ 1 | 1.01 to 5 | – | – |
| CO[C@@H]1CCN([C@@H]2Cc3cccc(Cl)c3[C@H]2NC(=O)c2ccc(-c3ccnc4[nH]cc(F)c34)nc2)C1 [Compound 189] | 0.01 to 100 | ≤ 1 | ≤ 1 | – | – |
| O=C(N[C@@H]1c2c(F)cc(C(F)F)cc2C[C@H]1N1CC[C@H](F)C1)c1ccc(-c2ccnc3[nH]ccc23)nc1 [Compound 190] | < 50 | ≤ 1 | ≤ 1 | – | – |
| CN(C)C(=O)[C@@H]1CCCN1[C@@H]1Cc2cccc(Cl)c2[C@H]1NC(=O)c1ccc(-c2ccnc3[nH]ccc23)nc1 [Compound 191] | < 50 | ≤ 1 | ≤ 1 | – | – |
